The values below come from patent publication US11344603B2, “Cytokine modulation” (AUCKLAND UNISERVICES LIMITED, priority 2017, dated 2022).

“Also recorded” adds a separate entry of the source.

Assay [1] has as its system ARPE-19 cells. Description: Cytokine and chemokine measurement by Cytometric Bead Array in ARPE-19 incubation medium. The assay is classed as cell-based, human. The procedure:
(§1) Human adult retinal pigmented epithelial cells (ARPE-19; American Type Culture Collection, Manassas, Va.) were cultured in Dulbecco's Modified Eagle Medium Nutrient Mixture F-12 medium (DMEM-F12; Thermofisher Scientific Inc., USA) supplemented with 10% foetal bovine serum (FBS; Invitrogen) and a 1× antibiotics and antimycotics mixture (AA, 100× stock) at 37° C. in a humidified 5% C02 incubator. Cells were grown in T75 flasks and the medium was changed twice per week until confluent and ready for experimentation.
(§2) At passage 6-12, cells were plated at 2.5×10^5 cells/mL in 8-well chamber slides for immunohistochemical studies or 24-well plates for ATP release assay and cytometric bead array analysis. Once confluent, the culture medium was changed to treatments in serum-free DMEM-F12 containing 1×AA. Some cultures were challenged with 15 mM glucose (High glucose (high glucose) group), a combination of pro-inflammatory cytokines 10 ng/mL TNF-α (Peprotech, USA) and 10 ng/mL IL-1β (Peprotech, USA) (Cytokines group), or a combination of high glucose, 10 ng/mL TNF-α and 10 ng/mL IL-1β (high glucose+Cytokines group). The untreated group received a medium change with no additional treatments (Basal group). All assessments were carried out 24 h post-treatment.
(§3) Peptide5 (H-Val-Asp-Cys-Phe-Leu-Ser-Arg-Pro-Thr-Glu-Lys-Thr-OH (SEQ ID NO: 1); China Peptides, China) was administered to cells challenged with high glucose and pro-inflammatory cytokines. Concentration-dependent effects were studied at 5, 10, 25 and 50 μM of […] after 24 h. […] O'Carroll, S J, et al. Connexin43 mimetic peptides reduce swelling, astrogliosis, and neuronal cell death after spinal cord injury. Cell communication & adhesion, 15:27-42 (2008).
Soluble cytokines and chemokines in the ARPE-19 incubation medium were measured simultaneously using multiplexed bead-based immunoassays, Cytometric Bead Array (CBA, BD Biosciences, USA). Three tests of 50 μL volume was taken from duplicate cultures in 24-well plates after 24 h and transferred into a 96-well plate to be used for the CBA assay. The analysis included six tests per group. The assay was conducted according to the manufacturer's instructions. Briefly, a ten-point standard curve ranging from 0 to 5000 pg/mL for each cytokine was prepared using the cytokine standard provided in each kit. The cytokines measured were human soluble CD54 (sICAM-1, cat #560269, BD Biosciences, USA), IL-6 (cat #558276), IL-8 (cat #558227), and MCP-1 (cat #558287). Samples and cytokine standards were incubated in the capture bead mixture for 1 h and Phycoerythrin (PE)-conjugated antibodies against each cytokine were added to the sample-bead mixture for 2 h incubation at room temperature. All buffers used were from the CBA human soluble protein master buffer kit (cat #558265, BD Biosciences, USA). Beads were washed and analysed using an Accuri C6 flow cytometer (BD Biosciences, USA). Mean fluorescence intensity for each bead cluster was converted into cytokine concentrations based on the ten-point standard curve using FCAP Array™ software (BD version 3.1) as described previously (O'Carroll et al., 2015).

For assay [2], the system named is ARPE-19 cells. Put plainly: VEGF secretion by ARPE-19 cells. It is filed as cell-based, human. To be noted: for VEGF release: high glucose + cytokines + Peptagon, versus basal. The protocol: as §1, §2, §3
Assay [3] has as its system NLRP3 inflammasome complex. Put plainly: Immunohistochemical labelling and quantification of NLRP3 inflammasome complexes. It is filed as cell-based, human. The note with it: 24 h. The protocol:
At passage 6-12, cells were plated at 2.5×10^5 cells/mL in 8-well chamber slides for immunohistochemical studies or 24-well plates for ATP release assay and cytometric bead array analysis. Once confluent, the culture medium was changed to treatments in serum-free DMEM-F12 containing 1×AA. Some cultures were challenged with 15 mM glucose (High glucose (high glucose) group), a combination of pro-inflammatory cytokines 10 ng/mL TNF-α (Peprotech, USA) and 10 ng/mL IL-1β (Peprotech, USA) (Cytokines group), or a combination of high glucose, 10 ng/mL TNF-α and 10 ng/mL IL-1β (high glucose+Cytokines group). The untreated group received a medium change with no additional treatments (Basal group). All assessments were carried out 24 h post-treatment. After 24 h of incubation in treatment media, cells were fixed with 4% paraformaldehyde for 10 min and permeabilised with 0.1% Triton X-100 in phosphate buffer saline (PBS) for 10 min. Cells were then incubated with mouse anti-NLRP3 (1:100; Abcam, USA) at 4° C. overnight followed by washing in PBS three times for 15 min. Goat anti-mouse Cy3 (1:500; Jackson Immuno Research, USA) secondary antibodies were applied to the slides and incubated at room temperature for 3 h. […] For NLRP3 immunohistochemical analysis, four images were analysed per well and the entire experiment was repeated three times. […] The number of NLPR3 spots were counted for each image.

The subject of assay [4] is ARPE-19 cells. Description: ATP release assay (ATPlite luminescence). It is filed as cell-based, human. To be noted: high glucose + cytokines, 24 h, compared to high glucose and cytokines. The procedure:
as §1
At passage 6-12, cells were plated at 2.5×10^5 cells/mL in 8-well chamber slides for immunohistochemical studies or 24-well plates for ATP release assay and cytometric bead array analysis. Once confluent, the culture medium was changed to treatments in serum-free DMEM-F12 containing 1×AA. […]
After 24 h of incubation in treatment media, ATP release was measured in triplicates using 50 μL of culture medium taken from duplicate wells of 24-well plates. […] ATP released into the culture medium was measured using the ATPlite Luminescence ATP Detection Assay System as per manufacturer instructions (PerkinElmer, USA). ATP release (%) in Peptide5 treated cultures (treated group) were calculated relative to cells treated with high glucose and cytokines (injury group) using the formula: (OD490 of treated group−OD490 of injury group)/(OD490 of injury group)×100%.
Background: In ATP-based viability assays light output follows the ATP content of the culture.

A further assay relates to connexin 43 hemichannels. The note with it: cited from earlier work.
Assay [5] addresses Cx43 carboxy-terminal domain (Rattus norvegicus, UniProt P08050). To be noted: low pH conditions; Verma et al. 2009, 2010; cited from earlier work.
The mark [6] stands for this setting: 10 nM exogenous ATP alone, mean ± SD.
The mark [7] stands for this setting: high glucose + cytokines + Peptagon 25 μM + ATP 10 nM, 24 h.
Where [8] appears, read: high glucose + cytokines (10 ng/mL TNF-α, 10 ng/mL IL-1β), Peptagon 5, 10, 25, 50 μM, 24 h.
The mark [9] stands for this setting: high glucose + cytokines, 5, 10, 25, 50 μM, 24 h.
Where [10] appears, read: high glucose + cytokines, Peptagon 25 μM, 24 h.

Chain of Cx43 carboxy-terminal domain (P08050 whole entry, the tested form may be a part): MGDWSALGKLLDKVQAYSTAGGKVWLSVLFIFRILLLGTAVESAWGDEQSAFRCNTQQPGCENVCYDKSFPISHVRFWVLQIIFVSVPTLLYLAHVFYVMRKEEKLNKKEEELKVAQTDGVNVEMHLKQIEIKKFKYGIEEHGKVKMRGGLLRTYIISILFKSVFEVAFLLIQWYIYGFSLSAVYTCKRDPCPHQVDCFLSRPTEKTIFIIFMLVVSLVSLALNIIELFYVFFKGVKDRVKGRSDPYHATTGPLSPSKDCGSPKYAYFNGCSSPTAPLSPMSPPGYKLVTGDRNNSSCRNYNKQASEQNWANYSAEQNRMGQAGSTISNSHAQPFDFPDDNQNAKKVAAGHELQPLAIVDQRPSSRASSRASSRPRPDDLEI

`Nc1ncnc2c1ncn2[C@@H]1O[C@H](COP(=O)(O)OP(=O)(O)OP(=O)(O)O)[C@@H](O)[C@H]1O` [ATP]: in the assay with ARPE-19 cells [1] (10 nM exogenous ATP alone), the “change in IL-6 secretion compared to basal conditions” value is recorded as “no change”, the “change in IL-8 secretion compared to basal conditions” value was “no change” and the “change in sICAM-1 secretion compared to basal conditions” value is listed as “no change”. For the same molecule, in the assay with ARPE-19 cells [1] (setting [6]), the “IL-6 secretion in response to extracellular ATP” value worked out at 8.22 ± 2.25 pg/mL, the “IL-8 secretion in response to extracellular ATP” value came to 67.70 ± 11.44 pg/mL, the “MCP-1 secretion in response to extracellular ATP” value is reported as 230.72 ± 37.08 pg/mL and the “sICAM-1 secretion in response to extracellular ATP” value is listed as 0 pg/mL. In addition, in the assay with ARPE-19 cells [1] (10 nM exogenous ATP alone, p≤0.0001), the “change in MCP-1 release compared to basal conditions” value was “decrease”. Further, in the assay with ARPE-19 cells [1] (setting [7]), the “effect of exogenous ATP on Peptagon-mediated protection against IL-6 release” value is recorded as “back towards injury levels; also recorded: reversed”, the “effect of exogenous ATP on Peptagon-mediated protection against IL-8 release” value was “back towards injury levels; also recorded: reversed”, the “effect of exogenous ATP on Peptagon-mediated protection against MCP-1 release” value is on record as “back towards injury levels; also recorded: reversed” and the “effect of exogenous ATP on Peptagon-mediated protection against sICAM-1 release” value was “did not reach statistical significance”. The “change in VEGF secretion compared to basal conditions” value in the assay with ARPE-19 cells [2] (10 nM exogenous ATP alone) is given as “no change”. In addition, the “VEGF secretion in response to extracellular ATP” value in the assay on ARPE-19 cells [2] (setting [6]) is 56.62 ± 8.94 pg/mL. Besides, the “effect of exogenous ATP on Peptagon hemichannel block effect on VEGF release” value in the assay on ARPE-19 cells [2] (high glucose + cytokines + Peptagon + exogenous ATP, 24 h) is “completely overrode; also recorded: negated hemichannel blocker-mediated protection against VEGF release”. The “effect of exogenous ATP on Peptagon block of NLRP3 inflammasome assembly” value in assay [3] (high glucose + cytokines + Peptagon + 10 nM ATP) is “overrode the hemichannel blocker treatment”.

Turning to “H-Val-Asp-Cys-Phe-Leu-Ser-Arg-Pro-Thr-Glu-Lys-Thr-OH (H-VDCFLSRPTEKT-OH) [Peptagon]”, the ATP release result with ARPE-19 cells [4] is “significantly reduced”. Moreover, the ATP release entry in the assay on ARPE-19 cells [4] (listed as Peptide5) is “prevented”. Moreover, the “connexin 43 hemichannel block versus gap junction coupling” value in the assay on connexin 43 hemichannels (5, 10, 25 and 50 μM, O'Carroll et al. 2008) was “block connexin 43 hemichannels with minimal effect on gap junction cell-cell coupling”. In the assay with connexin 43 hemichannels (O'Carroll et al., 2008), the “dose dependent action on hemichannels and gap junctions” value is “lower doses blocking gap junction hemichannel opening and higher doses uncoupling gap junctions between cells”. In addition, in the assay with ARPE-19 cells [1] (setting [8]), the IL-6 secretion entry was “significantly reduced”, the IL-8 secretion entry was “significantly reduced”, the MCP-1 secretion result is reported as “significantly reduced” and the sICAM-1 secretion result was “significantly reduced; also recorded: decrease”. Besides, in the assay on ARPE-19 cells [1] (setting [9]), the “concentration dependence of decrease in IL-6, IL-8 and MCP-1 secretion” value was “slight trend towards a concentration-dependent decrease; also recorded: concentration-dependent manner”; the “concentration dependence of decrease in sICAM-1 secretion” value is “all peptide concentrations had the same effect”. Further, in the assay on ARPE-19 cells [1] (setting [10]), the IL-6 secretion entry is “reduced secretion”, the IL-8 secretion result is listed as “reduced secretion”, the MCP-1 secretion entry is listed as “reduced secretion” and the sICAM-1 secretion entry is “reduced secretion”. Further, the VEGF release result in the assay with ARPE-19 cells [2] (24 h) is reported as “restored VEGF secretion back to basal levels”. Moreover, the VEGF release entry with ARPE-19 cells [2] (24 h, listed as Peptide5) is “completely arrested”. Also, the NLRP3 inflammasome assembly result in assay [3] (high glucose + inflammatory cytokines) is given as “blocked inflammasome assembly”.

Take “RRNYRRNY [linear peptide RRNYRRNY targeting the Cx43 carboxy-terminal domain]”: the “Cx43-based gap junction closure” value in assay [5] is given as “prevent Cx43-based gap junction closure under low pH conditions”.
